Point of comparison: Oc1ccc(-c2nnc(-c3ccc(O)cc3)o2)cc1, melting point 338 °C. Against it:
- COc1ccc(C(=O)Nc2ccc3ccc(Nc4ccccc4)nc3n2)cc1 — lower, 245 °C
- NC(=O)c1cccc(C2(O)C3CCC2CN(Cc2ccccc2)C3)c1 (centres undefined) — lower, 210 to 214 °C
- O=C(CSc1ccccn1)C12CC3CC(CC(C3)C1)C2 — lower, 60 to 61 °C
- COc1cc2nc(N3CCN(c4ccnc(Oc5ccccc5)n4)CC3)nc(N)c2cc1OC — lower, 253 to 254 °C
- NC(=S)c1ccccc1Nc1cccc(C(F)(F)F)c1 — lower, 106 to 108 °C
- Cc1sc2c(c1CCN1CCC(c3noc4cc(F)ccc34)CC1)CCNC2 — lower, 88 to 90 °C
- O=C(CCC(F)(F)Cl)Nc1ccccn1 — lower, 64 to 65 °C
- O=C1NCc2c3c(c4[nH]c5ccccc5c4c21)Cc1ccc(C=Cc2ccccn2)cc1-3 — not separable, > 320 °C
- Cc1cc(C2=NO[C@@](c3cc(Cl)c(F)c(Cl)c3)(C(F)(F)F)C2)ccc1C(=O)NC1CS(=O)(=O)C1 — lower, 134 to 136 °C
- COc1cccc(OC)c1CN1CCC(=O)C(C(c2ccc(F)cc2)c2ccc(F)cc2)C1 (centres undefined) — lower, 125 to 126 °C
- CC(CCl)NC(=O)c1c(Cl)cccc1[Si](C)(C)C (centres undefined) — lower, 150 to 151 °C
- CC(C)c1ccc(N2Cc3ccc(Cl)cc3C2=O)cc1 — lower, 206 to 209 °C
- CN(C)c1ccc(C2(CN)CCCC2)cc1 — lower, 87 to 89 °C
- S=c1c2[nH]cnc2c2cccnc2n1-c1ccccc1 — not separable, > 300 °C
- CCC1(CC)OC(=O)N(c2cccc(Cl)c2)c2ccccc21 — lower, 150 to 151 °C
- Fc1ccc(N=Cc2ccccc2)c(F)c1 — lower, 51 to 52 °C
- CCc1nc2cc(Cl)c(Cl)nc2n1-c1ccc(CCNC(=O)NS(=O)(=O)c2ccc(C)cc2)cc1 — lower, 188 to 189 °C
- COC1=CC(=O)[C@H](C(=O)O[C@@H]2C[C@H](C)CC[C@H]2C(C)C)[C@@H](C)C1 — lower, 78 to 80 °C
- CN(C)C(=O)n1nc(-c2ccccc2)c(-c2ccccc2)c(C#N)c1=O — lower, 231 °C
- O=C1COC(=O)c2ccccc2N1 — lower, 200 to 201 °C
- CC(C)NC(=S)NCc1c(Cl)ccc(C(=O)O)c1Cl — not separable, > 220 °C
- c1cc(CC2CCNC3CCCN23)ccc1CC1CCNC2CCCN12 (centres undefined) — lower, 110 °C
- O=C(NC1CCN(CCCC(O)c2ccccc2)CC1)c1ccccc1 (centres undefined) — lower, 155 to 156 °C
- O=C(N[C@H](Cc1ccc(C(F)(F)F)cc1)[C@@H](O)c1ccc(F)cc1)c1cccc2c1-c1ccccc1C2=O (racemic) — lower, 231 to 232 °C
- CCOC1COCC1Oc1cc(C(=O)Nc2c(Cl)cncc2Cl)ccc1OC (centres undefined) — lower, 171 to 173 °C
- CC(C)c1cc(S(C)(=O)=O)c(C(C)C)cc1C#N — lower, 134 to 137 °C
- Cc1cc(C)cc(Oc2c(CCl)c(C)[nH]c(=O)c2I)c1 — lower, 256 to 258 °C
- Cc1ccc(-c2ncc(Cl)cc2-c2ccc(S(C)=O)cc2)cn1 (centres undefined) — lower, 122 to 123 °C
- C=CCN1C(=O)c2cccc3c(OCCO)ccc(c23)C1=O — lower, 144 to 145 °C
- CCCCCCCCCCCCCCCCCCNC(=O)OCC(CNS(=O)(=O)CCCI)NC(=O)OC (centres undefined) — lower, 97 °C
- COc1ccc2ccnc(Cl)c2c1 — lower, 77 to 78 °C
- CCCCc1nc2cnc3cccnc3c2n1CCNC(=O)OC(C)(C)C — lower, 198 to 199 °C
- CCc1c(-c2ccc(OCc3ccccc3)cc2)c2c3c(c4c(OCc5ccccc5)ccc1n42)C(=O)OC3=O — lower, 229 to 231 °C
- CSc1ccccc1C(=N)N1CCN(CCc2cc3c(cc2Cl)NC(=O)C3)CC1 — lower, 103 to 106 °C
- COc1ccc(-c2nnn(-c3ccc(C(F)(F)F)cc3Cl)c2CBr)cc1 — lower, 152 to 154 °C
- CCn1c(C)nc2cc(C(=O)OC)ccc21 — lower, 118 to 121 °C
- COc1ccc(C#Cc2cccc(C(C)N(O)C(N)=O)c2)cc1 (centres undefined) — lower, 141 to 142 °C
- CCOc1nn(-c2ccc(C(F)(F)F)cn2)cc1CCOc1cc(CCC(=O)O)n(-c2ccccc2)n1 — lower, 155 to 156 °C
- COc1ccc(F)cc1Oc1c(NS(=O)(=O)c2ccc(C(C)(C)C)cc2)ncnc1OC[C@@H]1COC(C)(C)O1 — not separable, > 86 °C
- COC(=O)c1scc(C)c1NC(=S)N1CCN(c2ncnc3cc(OC)c(OC)cc23)CC1 — lower, 113 to 116 °C
- O=C(Nc1c[nH]nc1C(=O)NCCNc1ccccc1)c1ccccn1 — lower, 184 to 186 °C
- CC(=O)NCCOc1cc(N)c(Cl)cc1C(=O)NCCN(C)C — lower, 143 to 145 °C
- C[C@H]1CCCC(C)(C)[C@@H]1[C@H](O)c1cccc(C#N)c1 — lower, 105 to 107 °C
- Cc1cc(C)c(N2CCCc3c2nn(C)c3-c2ccccc2C(F)(F)F)c(C)c1 — lower, 59 to 63 °C
- CC(=O)N1CCN(C(=O)Cc2ccc(Cl)c(Cl)c2)C(CN2CCC(O)C2)C1 (centres undefined) — lower, 133 °C
- NC(=O)NC1COCC1c1ccccc1-n1nc(C(F)(F)F)cc1C(F)(F)F (centres undefined) — lower, 198 to 200 °C
- CCCCCCP1C(O)C(O)P(CCCCCC)C(O)C1O (centres undefined) — lower, 140 to 147 °C
- COc1ccc(C2=NN(CC3CCCCC3)C(=O)[C@H]3CCCC[C@@H]23)cc1OC (relative stereo) — lower, 137 to 139 °C
- N#CSCC(=O)N1CCCC1 — lower, 95 to 96 °C
- COCCOc1ccc(C(=O)C2=C(O)C(=O)N(c3ccc(C)nn3)C2c2ccc(OC(F)(F)F)cc2)cc1 (centres undefined) — lower, 216 to 219 °C
- CN(C)c1nc(=O)c2ccccc2n1Cc1ccc(F)cc1 — lower, 160 to 169 °C
- CS(=O)(=S)OCCCCC(=O)O (centres undefined) — lower, 61 to 62.5 °C
- OC(CNC1=NCCN1)c1cccc(Cl)c1 (centres undefined) — lower, 108 °C
- CS(=O)(=O)c1ccc(C(=O)O)c(C(F)(F)F)c1F — lower, 250 to 252 °C
- CN(C(=O)CNc1nc(-c2ccccc2)ncc1[N+](=O)[O-])c1ccccc1 — lower, 194 to 196 °C
- O=C1CC2CCCCC2=NN1c1ccc(Cl)cc1F (centres undefined) — lower, 110 to 112 °C
- O=c1[nH]c2cc(C(F)(F)F)cc3c2n(c1=O)C(P(=O)(O)O)CC3 (centres undefined) — lower, 262 °C
- CCCCC1=CC(=C(Br)Br)N(Cc2ccccc2)C1=O — lower, 56 to 58 °C
- COc1ccc2cc(N)cc(C)c2n1 — lower, 115 to 117 °C
- CC(C)c1cn2cccc(CO)c2n1 — lower, 97 to 99 °C
- CCCN(CCC)c1ccc(S(=O)(=O)N2CCCCC2=O)cc1 — lower, 105 to 108 °C
- COC(=O)c1csc2nc(N)sc12 — lower, 221 to 223 °C
- Cc1noc(NS(=O)(=O)c2cccs2)c1Br — lower, 125 to 127 °C
- Cc1nc2c(OCc3cccs3)cccn2c1CC#N — lower, 155 to 157 °C
- Cn1ncc(N2CCCC2)c(-c2ccccc2C=O)c1=O — lower, 140 to 141 °C
- CCC(CC)c1ccc(Cl)c2nc3n(c12)CC(=O)N3c1cnc(N(C)C)cc1C — lower, 222 to 224 °C
- CCOC(=O)c1ccc(C(F)(F)F)cc1N — lower, 42 to 43 °C
- COC(=O)c1csc(NC(=O)c2ccc(C#N)cc2)n1 — lower, 228 °C
- CC(c1ccc(-c2ccccc2)c(F)c1)c1nc(CN2CCOCC2)no1 (centres undefined) — lower, 91.5 to 92.5 °C
- CS(=O)(=O)c1ccc(C(=O)NCc2ccc3c(c2)CN(C2CCC(=O)NC2=O)C3=O)cc1 (centres undefined) — lower, 260 to 262 °C
- COC(=O)CCn1c(C(=O)O)c(C)c2cc(C)ccc21 — lower, 169 °C
- CCCCc1nn(-c2cc(NC(=O)OCCC)ccc2Cl)c(=O)n1Cc1ccc(-c2ccccc2S(=O)(=O)NC(=O)c2ccccc2Cl)cc1 — not separable, > 119 °C
- Cn1c(-c2ccc(-c3cncs3)cc2)cnc1[C@H](Cc1ccccn1)N(C=O)c1cc2cc(Cl)ccc2o1 — lower, 165 to 167 °C
- CC(C)(C)CC(=O)Nc1ccc2ncn3c(=O)c(C(=O)O)cnc3c2c1 — lower, 304 to 306 °C
- CN1C(=O)Cc2ccccc2C1=O — lower, 113 to 115 °C
- CC1(C)SC(=O)C2OC=C(Br)C=C21 (centres undefined) — lower, 63 to 72 °C
- CCOC(=O)c1cnc2nn(C)cc2c1OCCC(C)C — lower, 100 to 102 °C
- O=C1CC(SCc2ccccc2)C(O)(c2ccccc2)C(SCc2ccccc2)C1 (centres undefined) — lower, 120 °C
- COc1ccc(C(=O)Nc2ccccc2)cc1NCc1ccc(C)c(C)c1 — lower, 163 to 164 °C
- Cc1nc(N2CCc3ccccc3CC2)c(C#N)c(=O)n1OC(C)C — lower, 127 to 128 °C
- Cc1ccn2c(=O)c(CCN3CCC(c4c[nH]c5ccccc45)CC3)c(C)nc2c1 — lower, 236 °C
- C/C(=C\c1ccc(OCC(=O)O)cc1)[N+](=O)[O-] — lower, 149 to 151 °C
- O=[N+]([O-])c1cccc(-n2ccnc2)c1 — lower, 101 to 102 °C
- C1=C2NCCCN2Cc2ccccc2C1c1ccccc1 (centres undefined) — lower, 227 to 228 °C
- C#CCOC(=O)N1c2ccccc2C(=O)Nc2cccnc21 — lower, 213 °C
- CC(Cc1ccc(C(=O)OCOC(=O)C(C)(C)C)cc1)NCC(O)c1ccc(O)c(CO)c1 (centres undefined) — lower, 55 to 57 °C
- O=C(c1cccc(C(F)(F)F)c1)c1cc2c(Br)cccc2o1 — lower, 91 to 92 °C
- CCCCCCCc1cc2cn(C(CC)CC)c(=O)nc2o1 — lower, 128 to 130 °C
- COc1cccc(-c2ccnc(Nc3cccc(OC(F)(F)C(F)F)c3)n2)c1 — lower, 103 to 104 °C
- Oc1cccc(C=Cc2ccc3ccccc3n2)c1 — lower, 210 to 212 °C
- COC(=O)Cc1c(O)ncnc1O — not separable, > 200 °C
- CCc1noc(-c2cn(-c3cc(Cl)ccc3OCc3ccccc3)cn2)n1 — lower, 100 to 102 °C
- Cn1c2c(ccc1=O)C(NCCc1ccc3ccccc3c1)CCC2 (centres undefined) — lower, 113 to 115 °C
- O=C1C(Cl)=C(C2CCCCC2)C(=O)c2ccccc21 — lower, 150 to 151 °C
- Cc1cc(OCC(O)CNC(C)C)c2cc(C(=O)N(C)C)[nH]c2c1 (centres undefined) — lower, 169 to 171 °C
- CCOC(=O)CCCCCOC(=O)c1c(I)c(NC(C)=O)c(I)c(NC(C)=O)c1I — lower, 235 to 238 °C
- CCOCc1cc(I)c(=O)[nH]c1C — lower, 220 to 222 °C
- CC(C)(C)c1cc(C=C(C#N)C#N)cc(Cl)c1O — lower, 173 °C
- CCCCOCCOc1ccc(-c2ccc(N3CC=CC3)c(C=O)c2)cc1 — lower, 79 to 81 °C
- CCc1c2c(c(C)[nH]c1=O)CC(c1ccccn1)CC2 (centres undefined) — lower, 300 °C
- NC(=O)c1c(Cl)c(-c2ccccc2)n2c1CN(S(=O)(=O)Nc1ccc(C(F)(F)F)cc1)CC2 — lower, 209 to 211 °C
- CCOC=C(C=C(C#N)C#N)CCc1ccc(C(=O)OC)cc1 — lower, 136 to 137 °C
- COc1cc(-c2c3c(cc4ccc5c(c24)OCO5)C(=O)NC3)ccc1OCc1ccccc1 — lower, 236 to 239 °C

Reference: a melting point compilation (Tetko et al.; mined from patent text by program, amines drawn as free bases though some values may be those of a salt)
